Measured values as given in patent US10668094B2, “Selective inhibitors of Alpha2-containing isoforms of Na,K-ATPase and use thereof for reduction of intraocular pressure” (Yeda Research and Development Co. Ltd., priority 2015, dated 2020).
“Also recorded” adds a separate entry of the source. Read-outs that look alike come from different tables or passages of the source.

Legend:
[1] = biological target: human Na,K-ATPase α1β1FXYD1 (Homo sapiens (Human), UniProt P05023); format: biochemical; details: for Ki: read-out: Ki in nM ± SEM α1β1
[2] = biological target: human Na,K-ATPase α2β1FXYD1 (Homo sapiens, UniProt P50993); format: biochemical; details: read-out: Ki in nM ± SEM α2β1
[3] = tested on: human Na,K-ATPase α2β1FXYD1; format: biochemical
[4] = biological target: human Na,K-ATPase α2β2FXYD1 (Homo sapiens (Human), UniProt P50993); format: biochemical; details: for Ki: read-out: Ki in nM ± SEM α2β2
[5] = biological target: human Na,K-ATPase α2β3FXYD1 (Homo sapiens (Human), UniProt P50993+P54709); assay: biochemical; format: biochemical
[6] = tested on: Na,K-ATPase in bovine ciliary NPE cells; assay: biochemical; details: 1 site model; read-out: Ki, nM ± SEM
[7] = tested on: 4AP-induced IOP in rabbits; format: in vivo, rabbit
basal IOP in rabbits = assay: Basal IOP in rabbits, topical administration; format: in vivo, rabbit; details: for effect on lowering basal IOP: one drop of 1 mM solution, other eye PBS
[8] = tested on: Na,K-ATPase isoforms α1, α2, α3; details: cited from earlier work

Compound	Ki [1] [nM]	Ki [2] [nM]	Selectivity Ki ratio α1β1/α2β1 [3]	Selectivity Ki ratio α1β1/α2β2 [4]	Ki [4] [nM]	Selectivity Ki ratio α1β1/α2β3 [5]	selectivity for α2β3 over α1β1 (Ki α1β1:α2β3 ratio) [5]	Ki ([5]; read-out: Ki in nM ± SEM α2β3) [nM]	Ki for α1β1 lower than for digoxin [1]	Ki [5] [nM]	Ki for α2β3 lower than for digoxin [5]	Ki [6] [nM]	concentration that prevents the 4AP-induced rise in IOP ([7]; one drop topically prior to 4AP) [mM]	effect on lowering basal IOP (basal IOP in rabbits)	reduction of basal IOP (basal IOP in rabbits; rabbit with a basal IOP of 17 mm Hg)	reduction of basal IOP (basal IOP in rabbits; topical, test period of 4-5 hours)	effect on 4AP-induced IOP ([7]; 10 μM)	lower Ki values for α2 compared to α1 [8]
CC1CN(CC2CC(C)(C)C2)CCC(O[C@@H]2[C@H](C)O[C@@H](O[C@@H]3[C@H](C)O[C@@H](O[C@H]4CC[C@@]5(C)C(CCC6C5C[C@H](O)[C@]5(C)[C@@H](C7=CC(=O)OC7)CC[C@]65O)C4)C[C@@H]3O)C[C@@H]2O)O1 (stereo partly drawn) [DMDMcB, 4-((3S,5R,8R,9S10S,12R,13S,14S,17R)-3-(((2S,4S,5R,6R)-5-(((2S,4S,5S,6R)-5-((4-((3,3-dimethylcyclobutyl)methyl)-2-methyl-1,4-oxazepan-7-yl)oxy)-4-hydroxy-6-methyltetrahydro-2H-pyran-2-yl)oxy)-4-hydroxy-6-methyltetrahydro-2H-pyran-2-yl)oxy)-12,14-dihydroxy-10,13-dimethylhexadecahydro-1H-cyclopenta[a]phenanthren-17-yl)furan-2(5H)-one]	31.6 ± 0.5	8.6 ± 1.4	3.69	6.16	5.1 ± 0.5	8.19	10-12 fold	3.9 ± 0.7	–	–	–	–	–	–	–	–	–	–
CC1CN(CC2CC2)CCC(O[C@@H]2[C@H](C)O[C@@H](O[C@@H]3[C@H](C)O[C@@H](O[C@H]4CC[C@@]5(C)C(CCC6C5C[C@H](O)[C@]5(C)[C@@H](C7=CC(=O)OC7)CC[C@]65O)C4)C[C@@H]3O)C[C@@H]2O)O1 (stereo partly drawn) [DMcP]	95.8 ± 13.7	18.3 ± 1.6	5.2	12	8 ± 0.8	22.2	22 fold	4.3 ± 0.6	2-3 fold	~4	about 10 fold	7.9 ± 2.2	0.01	notable effect	about 4 mm Hg	20-25%	–	–
CC1CN(C)CCC(O[C@@H]2[C@H](C)O[C@@H](O[C@@H]3[C@H](C)O[C@@H](O[C@H]4CC[C@@]5(C)C(CCC6C5C[C@H](O)[C@]5(C)[C@@H](C7=CC(=O)OC7)CC[C@]65O)C4)C[C@@H]3O)C[C@@H]2O)O1 (stereo partly drawn) [DMe]	103 ± 5.6	15.3 ± 1.2	6.7	5.1	20.4 ± 1.8	9.5	–	10.8 ± 0.6	–	–	–	15.6 ± 1.3	–	–	–	–	–	–
CCCN1CCC(O[C@@H]2[C@H](C)O[C@@H](O[C@@H]3[C@H](C)O[C@@H](O[C@H]4CC[C@@]5(C)C(CCC6C5C[C@H](O)[C@]5(C)[C@@H](C7=CC(=O)OC7)CC[C@]65O)C4)C[C@@H]3O)C[C@@H]2O)OC(C)C1 (stereo partly drawn) [DP]	87.7 ± 7.9	18.3 ± 1.68	4.8	8.3	10.5 ± 1.8	8.8	–	9.8 ± 1.1	–	–	–	–	–	–	–	–	–	–
CC1CN(C[Si](C)(C)C)CCC(OC2C(O)CC(OC3C(O)CC(OC4CCC5(C)C(CCC6C5CC(O)C5(C)C(C7=CC(=O)OC7)CCC65O)C4)OC3C)OC2C)O1 (stereo not drawn) [DTMS]	72.6 ± 17.6	24.3 ± 4	3	5.1	14.3 ± 1.3	6.5	–	11.1 ± 1.6	–	–	–	–	–	–	–	–	–	–
CC1CN(C2CC2)CCC(O[C@@H]2[C@H](C)O[C@@H](O[C@@H]3[C@H](C)O[C@@H](O[C@H]4CC[C@@]5(C)C(CCC6C5C[C@H](O)[C@]5(C)[C@@H](C7=CC(=O)OC7)CC[C@]65O)C4)C[C@@H]3O)C[C@@H]2O)O1 (stereo partly drawn) [DcP, 4-((3S,5R,8R,9S,10S,12R,13S,14S,17R)-3-(((2R,4S,5S,6R)-5-(((2S,4S,5S,6R)-5((4-cyclopropyl-2-methyl-1,4-oxazepan-7-yl)oxy)-4-hydroxy-6-methyltetrahydro-2H-pyran-2-yl)oxy)-4-hydroxy-6-methyltetrahydro-2H-pyran-2-yl)oxy)-12,14-dihydroxy-10,13-dimethythylhexadecahydro-1H-cyclopenta[a]phenanthren-17-yl)furan-2(5H)-one]	109 ± 6.2	14.6 ± 11.6	7.5	8.5	13 ± 1.3	13.4	–	8.1 ± 1.36	–	–	–	–	–	–	–	–	–	–
CC(C)CN1CCC(O[C@@H]2[C@H](C)O[C@@H](O[C@@H]3[C@H](C)O[C@@H](O[C@H]4CC[C@@]5(C)C(CCC6C5C[C@H](O)[C@]5(C)[C@@H](C7=CC(=O)OC7)CC[C@]65O)C4)C[C@@H]3O)C[C@@H]2O)OC(C)C1 (stereo partly drawn) [DiB]	92	20.6 ± 1.4	–	–	–	–	–	–	–	–	–	–	–	lack of effect; also recorded: neither digoxin nor DiB had a significant effect	–	–	still effective	–
CC1CN(C(C)C)CCC(O[C@@H]2[C@H](C)O[C@@H](O[C@@H]3[C@H](C)O[C@@H](O[C@H]4CC[C@@]5(C)C(CCC6C5C[C@H](O)[C@]5(C)[C@@H](C7=CC(=O)OC7)CC[C@]65O)C4)C[C@@H]3O)C[C@@H]2O)O1 (stereo partly drawn) [DiP]	149	28.9 ± 1.7	5.1	8.9	16.7 ± 1.9	14.4	–	10.3 ± 1.8	–	–	–	–	–	–	–	–	–	–
C[C@H]1O[C@@H](O[C@H]2[C@@H](O)C[C@H](O[C@H]3[C@@H](O)C[C@H](O[C@H]4CC[C@@]5(C)[C@H](CC[C@@H]6[C@@H]5CC[C@]5(C)[C@@H](C7=CC(=O)OC7)CC[C@]65O)C4)O[C@@H]3C)O[C@@H]2C)C[C@H](O)[C@@H]1O [Digitoxin, digitoxin]	–	–	–	–	–	–	–	–	–	–	–	–	–	–	–	–	–	3-4 fold
C[C@H]1O[C@@H](O[C@H]2[C@@H](O)C[C@H](O[C@H]3[C@@H](O)C[C@H](O[C@H]4CC[C@@]5(C)[C@H](CC[C@@H]6[C@@H]5C[C@@H](O)[C@]5(C)[C@@H](C7=CC(=O)OC7)CC[C@]65O)C4)O[C@@H]3C)O[C@@H]2C)C[C@H](O)[C@@H]1O [Digoxin, digoxin, reference compound]	–	–	–	–	–	–	–	–	–	–	–	91.7 ± 10.2	–	lack of effect; also recorded: neither digoxin nor DiB had a significant effect	–	–	–	3-4 fold
CC1CN(C(C)(C)C)CCC(O[C@@H]2[C@H](C)O[C@@H](O[C@@H]3[C@H](C)O[C@@H](O[C@H]4CC[C@@]5(C)C(CCC6C5C[C@H](O)[C@]5(C)[C@@H](C7=CC(=O)OC7)CC[C@]65O)C4)C[C@@H]3O)C[C@@H]2O)O1 (stereo partly drawn) [DtB]	135	21.6 ± 5.6	6.2	7.3	18.4 ± 1.1	8.2	–	16.3 ± 0.28	–	–	–	–	–	–	–	–	–	–
